The values below come from patent US9359395B2, “Prodrugs of steroidal CYP17 inhibitors/antiandrogens” (Tokai Pharmaceuticals, Inc., priority 2009, dated 2016).

SMILES strings stand for the structures.

In one data set the test system is AR. To be noted: cited from earlier work.
The conditions of data set [1]: mice, cited from earlier work; for detectability in plasma at 8 hours / peak plasma levels: s.c. 50 mg/kg.
The subject of data set [2] is androgen-dependent LAPC4 human prostate tumor xenograft. To be noted: cited from earlier work; for inhibiting the growth of LAPC4 xenograft: in vivo.
Data set [3] is described as follows: Oral bioavailability in rats. To be noted: rat, in vivo, initial studies.

`C[C@]12CCC(=O)C=C1CCC1C2CC[C@]2(C)C(n3cnc4ccccc43)=CCC12` (stereo partly drawn) [Compound 6, 17-(1H-benzimidazole-1-yl)androsta-4,16-diene-3-one]: the AR antagonist activity result in the data set with AR was “potent pure AR antagonists”. In addition, in data set [1], the “detectability in plasma at 8 hours” value is listed as “neither was detectable” and the peak plasma levels is on record as 5.15 ng/mL. Moreover, in data set [2], the “inhibiting the growth of LAPC4 xenograft” value is recorded as “ineffective”.
Broadly, the bioavailability is dose-corrected exposure relative to a reference, in per cent. Read a high bioavailability as much systemic uptake. `C[C@]12CC[C@H](O)CC1=CCC1C2CC[C@]2(C)C(n3cnc4ccccc43)=CCC12` (stereo partly drawn) [Compound 5, 3-β-hydroxy-17-(1H-benzimidazole-1-yl)androsta-5,16-diene]: the bioavailability in data set [3] was roughly 10%. Also, the AR antagonist activity result in the data set with AR was “potent pure AR antagonists”. In data set [1], the “detectability in plasma at 8 hours” value was “neither was detectable” and the peak plasma levels is 16.82 ng/mL. Also, in data set [1] (metabolite tentatively identified as 17-(1H-benzimidazol-1-yl)androsta-3-one), the conversion into metabolite entry is listed as “rapidly converted into a metabolite”. Besides, the “reduction in the mean final tumor volume compared with controls” value in data set [2] (50 mg/kg, twice daily, P=0.00065) was 93.8%. Further, the “efficacy compared with castration” value in data set [2] (50 mg/kg, twice daily) is on record as “significantly more effective than castration”. Moreover, in data set [2], the “inhibiting the growth of LAPC4 xenograft” value was “very effective”.
